This is an account of results in patent US8466145B2, “Dipeptidyl peptidase IV inhibitors” (Orchid Chemicals & Pharmaceuticals Limited, priority 2009, dated 2013).

Structures are written as SMILES. Structures can show the parent of a compound that is named as a salt.

System in the first data set: not given
Test: not given
Conditions: not given
Compound `CC1(C)[C@@H](NCC(=O)N2CCC[C@H]2C#N)CC[C@@]1(C)c1nc(-c2ccc(F)cc2)no1` (as salt: methanesulfonate) [Example 66, (S)-1-(2-((1S,3R)-3-(3-(4-Fluorophenyl)-1,2,4-oxadiazol-5-yl)-2,2,3-trimethylcyclopentylamino)acetyl)pyrrolidine-2-carbonitrile methanesulfonate] had a melting point of 206 to 211 °C.

The target of the next data set is T1, human recombinant Dipeptidyl peptidase IV enzyme (hrDPP IV) (Homo sapiens, UniProt P27487).
T1 construct: purchased R&D systems
T1 sequence (P27487 whole entry): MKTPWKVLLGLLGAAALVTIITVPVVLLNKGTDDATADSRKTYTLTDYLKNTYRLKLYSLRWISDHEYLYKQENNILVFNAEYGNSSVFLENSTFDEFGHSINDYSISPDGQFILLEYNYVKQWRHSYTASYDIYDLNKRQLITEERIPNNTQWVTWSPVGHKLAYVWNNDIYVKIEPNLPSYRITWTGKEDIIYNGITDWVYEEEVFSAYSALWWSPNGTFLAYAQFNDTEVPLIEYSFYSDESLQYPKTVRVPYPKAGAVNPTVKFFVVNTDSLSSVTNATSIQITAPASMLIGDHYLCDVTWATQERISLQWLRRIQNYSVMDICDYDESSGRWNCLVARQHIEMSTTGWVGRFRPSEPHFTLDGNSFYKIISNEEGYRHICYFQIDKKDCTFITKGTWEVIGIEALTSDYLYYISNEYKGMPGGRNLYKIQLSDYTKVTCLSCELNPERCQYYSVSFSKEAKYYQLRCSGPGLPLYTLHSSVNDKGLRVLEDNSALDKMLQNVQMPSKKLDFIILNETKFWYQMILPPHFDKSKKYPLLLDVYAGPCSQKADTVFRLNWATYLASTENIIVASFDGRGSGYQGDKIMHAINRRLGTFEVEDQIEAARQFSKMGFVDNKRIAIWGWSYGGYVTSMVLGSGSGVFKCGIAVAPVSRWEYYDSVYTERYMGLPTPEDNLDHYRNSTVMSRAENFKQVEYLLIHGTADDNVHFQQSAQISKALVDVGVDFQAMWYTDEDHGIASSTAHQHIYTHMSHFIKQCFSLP
As to the kind of experiment: DPP IV assay, cleavage of H-Gly-Pro-AMC by human recombinant DPP-IV enzyme. Type of data set: biochemical.
Conditions: not given
On the procedure:
DPP IV activity was determined by the cleavage rate of 7-amino 4-methylcoumarin (AMC) from the substrate H-Gly-Pro-AMC. In brief, the assay was conducted by adding 3 ng of human recombinant Dipeptidyl peptidase IV enzyme (hrDPP IV, available commercially from R&D systems) in 70 μL of the assay buffer (25 mM HEPES, 140 mM NaCl and 1% BSA, pH 7.8) to a 96 well black flat bottom microtitre plate. Test compounds were added as 10 μL additions to all wells except blank and total activity wells. After incubation of test substance with enzyme for 60 minutes at room temperature, 10 μL of 100 μM substrate H-Gly-Pro-AMC was added. After mixing, the plate was left for 20 minutes at room temperature. Then the reaction was terminated by addition of 10 μL of 25% glacial acetic acid. Fluorescence was measured using Spectra Max Gemini XS (Molecular Devices, USA) at an excitation filter of 360 nm and emission filter of 460 nm.
Test compounds dissolved in DMSO were diluted with assay buffer at different concentrations and tested in duplicates. Percentage inhibition was calculated with respect to total activity. IC50 value was calculated using Prism Software.
Consider `CC1(C)[C@H](Cn2cncn2)CC[C@]1(C)NCC(=O)N1CCC[C@H]1C#N` [Example 6, (S)-1-(2-((1S,3R)-3-((1H-1,2,4-Triazol-1-yl)methyl)-1,2,2-trimethylcyclopentylamino)acetyl)pyrrolidine-2-carbonitrile], for which the half-inhibitory concentration (IC50) stood at 123 nM. Same read-out and setting: under `CC1(C)[C@@H](Cn2cncn2)CC[C@@]1(C)NCC(=O)N1CCC[C@H]1C#N` [Example 8, (S)-1-(2-((1R,3S)-3-((1H-1,2,4-Triazol-1-yl)methyl)-1,2,2-trimethyleyclopentylamino)acetyl)pyrrolidine-2-carbonitrile] stands 1170 ± 0.14 nM; under `CC1(C)[C@H](Cn2cncn2)CC[C@]1(C)NCC(=O)N1CCC[C@H]1C#N` [Example 7, (S)-1-(2-((1S,3R)-3-((1H-1,2,4-Triazol-1-yl)methyl)-1,2,2-trimethylcyclopentylamino)acetyl)pyrrolidine-2-carbonitrile methanesulfonate], 99.8 nM. Still for that read-out and setting: the same measure for `CC1(C)[C@@H](Cn2cnnn2)CC[C@@]1(C)NCC(=O)N1C[C@@H](F)C[C@H]1C#N` [Example 31, (2S,4S)-1-(2-((1R,3S)-3-((1H-Tetrazol-1-yl)methyl)-1,2,2-trimethylcyclopentylamino)acetyl)-4-fluoropyrrolidine-2-carbonitrile methanesulfonate]: 264 nM; for `CC1(C)[C@@H](CNc2ccc(C#N)cn2)CC[C@@]1(C)NCC(=O)N1C[C@@H](F)C[C@H]1C#N` [Example 24, 6-(((1S,3R)-3-(2-((2S,4S)-2-Cyano-4-fluoropyrrolidin-1-yl)-2-oxoethylamino)-2,2,3-trimethylcyclopentyl)methylamino)nicotinonitrile]: 134 nM. Regarding `CC1(C)[C@@H](CNS(=O)(=O)c2ccc(F)cc2)CC[C@@]1(C)NCC(=O)N1C[C@@H](F)C[C@H]1C#N` [Example 19, N-(((1S,3R)-3-(2-((2S,4S)-2-Cyano-4-fluoropyrrolidin-1-yl)-2-oxoethylamino)-2,2,3-trimethylcyclopentyl)methyl)-4-fluorobenzenesulfonamide], the IC50 is 304.8 ± 2.1 nM. Still for that read-out and setting: the same measure for `CC1(C)[C@@H](Cn2cncn2)CC[C@@]1(C)NCC(=O)N1CCC[C@H]1C#N` [Example 9, (S)-1-(2-((1R,3S)-3-((1H-1,2,4-Triazol-1-yl)methyl)-1,2,2-trimethylcyclopentylamino)acetyl)pyrrolidine-2-carbonitrilemethanesulfonate]: 781 ± 91.6 nM.

In the case of `CC1(C)[C@@H](CN2CCOCC2)CC[C@@]1(C)NCC(=O)N1C[C@@H](F)C[C@H]1C#N` [Example 33, (2S,4S)-4-Fluoro-1-(2-((1R,3S)-1,2,2-trimethyl-3-(morpholinomethyl)cyclopentylamino)acetyl)pyrrolidine-2-carbonitrile], the IC50 was 250 nM. On the same count and under the same terms, under `CC1(C)[C@@H](Cn2ccnn2)CC[C@@]1(C)NCC(=O)N1C[C@@H](F)C[C@H]1C#N` [Example 11, (2S,4S)-1-(2-((1R,3S)-3-((1H-1,2,3-Triazol-1-yl)methyl)-1,2,2-trimethylcyclopentylamino)acetyl)-4-fluoropyrrolidine-2-carbonitrile] stands 232 nM.

On to `CC1(C)[C@H](CNc2ccc(C#N)cn2)CC[C@]1(C)NCC(=O)N1C[C@@H](F)C[C@H]1C#N` [Example 25, 6-(((1R,3S)-3-(2-((2S,4S)-2-Cyano-4-fluoropyrrolidin-1-yl)-2-oxoethylamino)-2,2,3-trimethylcyclopentyl)methylamino)nicotinonitrile], for which the IC50 is 29.4 nM.

Consider `CC1(C)[C@H](Cn2ccnn2)CC[C@]1(C)NCC(=O)N1C[C@@H](F)C[C@H]1C#N` [Example 13, (2S,4S)-1-(2-((1S,3R)-3-((1H-1,2,3-Triazol-1-yl)methyl)-1,2,2-trimethylcyclopentylamino)acetyl)-4-fluoropyrrolidine-2-carbonitrilemethane sulfonate], for which the IC50 is 27.8 nM.

Still in this data set, the particulars now being: 300 nM compound concentration.
For `CN1C[C@]2(C)CC[C@](NCC(=O)N3CCC[C@H]3C#N)(C1)C2(C)C` [Example 78, (S)-1-(2-((1R,5R)-3,5,8,8-Tetramethyl-3-azabicyclo[3.2.1]octan-1-ylamino)acetyl)pyrrolidine-2-carbonitrile], the inhibition at 0.3 µM came to 23.3%. For the compound `CC1(C)[C@@H](CN2CCC(O)CC2)CC[C@@]1(C)NCC(=O)N1C[C@@H](F)C[C@H]1C#N` [Example 41, (2S,4S)-4-Fluoro-1-(2-((1R,3S)-3-((4-hydroxypiperidin-1-yl)methyl)1,2,2-trimethylcyclopentylamino)acetyl)pyrrolidine-2-carbonitrile], the inhibition at 0.3 µM was 26.1%. With `CC1(C)[C@@H](C(=O)N2CCCCC2)CC[C@@]1(C)NCC(=O)N1C[C@@H](F)C[C@H]1C#N` [Example 14, (2S,4S)-4-Fluoro-1-(2-((1R,3S)-1,2,2-trimethyl-3-(piperidine-1-carbonyl)cyclopentylamino)acetyl)pyrrolidine-2-carbonitrile], the inhibition at 0.3 µM was 73.2%. As to `CC1(C)[C@@H](CNS(C)(=O)=O)CC[C@@]1(C)NCC(=O)N1C[C@@H](F)C[C@H]1C#N` [Example 17, N-(((1S,3R)-3-(2-((2S,4S)-2-Cyano-4-fluoropyrrolidin-1-yl)-2-oxoethylamino)-2,2,3-trimethylcyclopentyl)methyl)methanesulfonamide], the inhibition at 0.3 µM worked out at 46.6%. On the same count and under the same terms, the same measure for `CC1(C)[C@@]2(C)CC[C@]1(NCC(=O)N1C[C@@H](F)C[C@H]1C#N)COC2` [Example 81, (2S,4S)-4-Fluoro-1-(2-((1R,5R)-5,8,8-trimethyl-3-oxabicyclo[3.2.1]octan-1-ylamino)acetyl)pyrrolidine-2-carbonitrile]: 21.3%; for `CC1(C)[C@@]2(C)CC[C@]1(NCC(=O)N1CCC[C@H]1C#N)COC2` [Example 80, (S)-1-(2-((1R,5R)-5,8,8-Trimethyl-3-oxabicyclo[3.2.1]octan-1-ylamino)acetyl)pyrrolidine-2-carbonitrile]: 2.28%. Regarding `CC1(C)[C@]2(C)CC[C@@]1(NCC(=O)N1C[C@@H](F)C[C@H]1C#N)COC2` [Example 82, (2S,4S)-4-Fluoro-1-(2-((1S,5S)-5,8,8-trimethyl-3-oxabicyclo[3.2.1]octan-1-ylamino)acetyl)pyrrolidine-2-carbonitrile], the inhibition at 0.3 µM came to 22.4%. On the same count and under the same terms, under `CC1(C)[C@H](CN2CCCCC2)CC[C@]1(C)NCC(=O)N1C[C@@H](F)C[C@H]1C#N` [Example 40, (2S,4S)-4-Fluoro-1-(2-((1S,3R)-1,2,2-trimethyl-3-(piperidin-1-ylmethyl)cyclopentylamino)acetyl)pyrrolidine-2-carbonitrile] stands 84.7%; under `CC1(C)[C@@H](CC#N)CC[C@@]1(C)NCC(=O)N1C[C@@H](F)C[C@H]1C#N` [Example 53, (2S,4S)-1-(2-((1R,3R)-3-(Cyanomethyl)-1,2,2-trimethylcyclopentylamino)acetyl)-4-fluoropyrrolidine-2-carbonitrile], 56.5%.
